Experiments:
Format in all cases: cell-based
[1] = tested on: canine tubule-derived MDCK II cells; assay: Inhibition of induction of apoptosis, Caspase-3/7 activity assay in spheroids; conditions: U- and V-bottom 96-well plates coated with 0.5% solution diluted 4-fold and 8-fold; day 3 and day 6; concentration-dependent, more pronounced on day 6
Experimental: An aqueous solution of the polypeptide represented by formula (1) was added in two different concentrations (prepared by diluting a 0.5% solution 4-fold and 8-fold) at 100 μL/well and 200 μL/well respectively to two 96-well cell culture plates with different bottom shapes (plate #163320 with a U-shaped bottom; Corning, NY, USA, and plate #277143 with a V-shaped bottom; Thermo Fisher Scientific, MA, USA) and allowed to stand overnight at 4° C. Thereafter, the excess cell culture supplement was removed, and the remaining solution was dried in a clean bench for about 6 hours to complete the treatment with the cell culture supplement. […] After three days and six days, the apoptosis activity per well was measured by using a Caspase activity assay kit (Apo-ONE Homogeneous Caspase-3/7 Assay kit; Promega, WI, USA). […] Thereafter, 100 μL of the culture fluid was transferred to a black 96-well cell culture plate (#237105; Thermo Fisher Scientific, MA, USA), and the value of fluorescence at 590 nm (excitation light at 560 nm) was measured with a plate reader. The value determined by subtracting the value for reagent-only with no cells (blank value) from a measured value was considered to be the measured value for each day of culture, and the values compared to those of the plate not coated with the aqueous solution of the polypeptide represented by formula (1) (control) were plotted.

[2] = tested on: HOS-143 cells (human osteosarcoma cells); assay: Three-dimensional spheroid culture of cancer cells, microscope observation; conditions: 6-well flat-bottom vessel coated with 0.125% solution; DMEM + 10% FBS; day 4 to day 15
Experimental: (§1) Method 2 mL of an aqueous solution of the polypeptide represented by formula (1) (0.125%) (cell culture supplement) was added to a commercial polystyrene-made 6-well flat-bottom culture vessel (CellBIND, Corning) and allowed to stand at 4° C. for 24 hours.
(§2) The cell culture supplement solution was then removed and the coated cell culture supplement was dried in a dryer at 37° C. for 96 hours to complete the cell culture supplement coating process. For human cancer cells, common cancer cell lines, A549 cells (human lung cancer cells, ATCC CCL-185, carcinoma), ES2 cells (human ovarian cancer cells, ATCC CRL-1978, clear cell carcinoma), and HOS-143 cells (human osteosarcoma cells, ATCC CRL-8303, osteosarcoma), were used. Each type of cancer cells was seeded in the culture vessel at 2×10^5 cells/well/[…] and cultured at 37° C. under 5% CO2. The medium for use was a DMEM medium supplemented with 10% FBS and penicillin/streptomycin. For a control, cancer cells were seeded in the same type of culture vessel that was not coated with the cell culture supplement at […]. Observation was performed with a microscope on day 4 and day 15 after the start of culture to capture images of spheroid formation (FIG. 18).

[3] = tested on: A549 cells (human lung cancer cells); assay: as above; conditions: 6-well flat-bottom vessel coated with 0.125% solution; DMEM + 10% FBS; day 4 to day 15
Experimental: as §1, §2

[4] = tested on: ES2 cells (human ovarian cancer cells); assay: as above; conditions: 6-well flat-bottom vessel coated with 0.125% solution; DMEM + 10% FBS; day 4 to day 15
Experimental: as §1, §2

Substance: (Pro-Hyp-Gly)n [cell culture supplement]
- apoptosis (Caspase-3/7 activity) compared with uncoated plate [1]: inhibited
- spheroid formation [2]: form spheroids
- spheroid formation [3]: form spheroids
- spheroid formation [4]: form spheroids
